What was measured:
[1] = biological target: T1, Acrosin (purified from boar sperm) (Sus scrofa, UniProt P08001); test: Acrosin inhibition in vitro (BAPNA substrate); assay type: biochemical; parameters: Inhibition (units/mg): dose or concentration left out as unconfirmed; details: for Inhibition (units/mg.): sodium salts; for Inhibition (units/mg): other salts
T1 construct: purified from boar sperm; from tissue; host or cells: boar sperm
Procedure: A control using the buffer solution without the test compound added is also run. A 200 μl-sample of the incubation mixture is then withdrawn and is added to a cuvette containing BAPNA (1 ml.) and triethanolamine buffer (2 ml.). The mixture is stirred and placed in a Gilford recording spectrophotometer. The increase in optical density at 383 nm is measured. One unit of acrosin activity is defined as the amount of acrosin which will cause an increase in optical density at 383 nm. of 0.001/minute. One unit of inhibitory activity is defined as the amount of inhibitor which will cause a reduction in the increase in optical density at 383 nm. of 0.001/minute.

[2] = biological target: T2, Testicular bovine hyaluronidase (Bos taurus, UniProt Q2YDK3); test: Hyaluronidase inhibition in vitro (chondroitin sulfate agar plate); assay type: biochemical; details: for inhibition at 1000 µg/mL: Conc. of Test Solution 1 mg/ml; for % Inhibition: Conc. of Test Sol. 10 mg/ml
T2 construct: purchased Sigma Chemical Company; host or cells: bovine testis
T2 sequence (Q2YDK3 36-553): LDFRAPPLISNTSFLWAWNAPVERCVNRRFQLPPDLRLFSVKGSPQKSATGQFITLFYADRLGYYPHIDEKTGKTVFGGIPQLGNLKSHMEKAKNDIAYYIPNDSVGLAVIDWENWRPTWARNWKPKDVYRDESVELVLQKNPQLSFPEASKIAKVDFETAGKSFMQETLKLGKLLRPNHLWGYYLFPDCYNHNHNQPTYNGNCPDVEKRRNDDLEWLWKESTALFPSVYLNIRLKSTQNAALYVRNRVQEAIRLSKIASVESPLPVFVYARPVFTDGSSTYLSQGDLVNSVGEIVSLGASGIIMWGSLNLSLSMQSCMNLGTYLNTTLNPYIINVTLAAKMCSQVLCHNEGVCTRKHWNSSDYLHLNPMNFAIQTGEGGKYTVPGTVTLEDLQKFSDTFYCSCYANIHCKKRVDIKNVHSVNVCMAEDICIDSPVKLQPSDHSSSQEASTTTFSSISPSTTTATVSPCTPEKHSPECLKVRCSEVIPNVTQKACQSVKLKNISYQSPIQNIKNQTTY
Procedure: The inhibition of hyaluronidase is assessed using chondroitin sulfate as the enzyme substrate according to the following procedure:
Agar plates containing chondroitin sulfate (0.1 percent) are prepared by the following method: water solutions of 1 percent agarose, 2 M sodium chloride (0.1 vol.), 1 M sodium acetate (pH 5.0, 0.1 vol), and sodium azide (0.5 mg./ml., 0.1 vol.) are mixed and the mixture is brought to the boiling temperature. […] After cooling to about 45° C., the resulting mixture (20 ml.) is poured onto a petri dish. The plates are allowed to cool to room temperature. A well 2 mm. in diameter is then cut in the agar surface. […] A control using only the buffer solution without added test compound is also run. The plates are then incubated overnight (about 16 hours) at 37° C. The zones of hydrolysis of chondroitin sulfate by hyaluronidase are visualized by flooding the plate with 10 percent cetyl trimethyl ammonium bromide. The area of the zone is logarithmically proportional to the concentration of hyaluronidase. Inhibitor activity is determined by comparing the area of hydrolysis from the test compound to the area of hydrolysis from the control. The results are expressed as percent inhibition calculated as follows: [formula]

[3] = Conc. of Test Solution 10 Mg/ml
[4] = sodium salts, Conc. of Test Solution 10 mg/ml

T1 sequence (P08001 40-338 limits assumed): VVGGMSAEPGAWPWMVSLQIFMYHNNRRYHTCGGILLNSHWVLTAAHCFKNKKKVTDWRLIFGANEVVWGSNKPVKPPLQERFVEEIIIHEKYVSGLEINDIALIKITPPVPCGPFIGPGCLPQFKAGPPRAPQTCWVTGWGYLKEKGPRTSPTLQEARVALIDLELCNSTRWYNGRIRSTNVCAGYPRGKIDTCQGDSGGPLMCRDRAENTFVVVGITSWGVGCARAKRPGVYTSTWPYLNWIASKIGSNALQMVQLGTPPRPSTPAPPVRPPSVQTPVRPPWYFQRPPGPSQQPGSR
T1 sequence (P08001 17-39 limits assumed): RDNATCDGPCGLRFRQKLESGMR

CCCCCCCCCCCCCCCCCCCCCCOS(=O)(=O)O [n-docosyl]
Inhibition (units/mg.) ([1]; Conc. of Test Solution 1 Mg/ml): 300,000 units/mg.
inhibition at 1000 µg/mL ([2]; sodium salts): 0%

CCCCCCCCCCCCCCOS(=O)(=O)O [CH3 (CH2)13 NH4]
Inhibition (units/mg) [1]: 47,000 units/mg
% Inhibition ([2]; other salts): 14%

CCCC/C=C/CCCCCCCCOS(=O)(=O)O [myristeladyl]
Inhibition (units/mg.) ([1]; Conc. of Test Solution 1 Mg/ml): 216,000 units/mg.
inhibition at 1000 µg/mL ([2]; sodium salts): 13%

CCCCCCCCC(CCCCCCC)OS(=O)(=O)O (stereo not drawn) [8-hexadecyl]
Inhibition (units/mg.) ([1]; Conc. of Test Solution 1 Mg/ml): 28,000 units/mg.
inhibition at 1000 µg/mL ([2]; sodium salts): 0%

CCCCCCCCCCCCCCOS(=O)(=O)O [CH3 (CH2)13 Mg]
Inhibition (units/mg) [1]: 59,000 units/mg
% Inhibition ([2]; other salts): 14%

CCCCCCCCCCCOS(=O)(=O)O [n-hendecyl]
Inhibition (units/mg.) [1, 3]: 0 units/mg.
inhibition at 10000 µg/mL [2, 4]: 100%

CCCCCCCCCCCCOS(=O)(=O)O [CH3 (CH2)11 diethanolammonium]
Inhibition (units/mg) [1]: 90,000 units/mg
inhibition at 10000 µg/mL ([2]; 16 h, other salts, Conc. of Test Sol. 10 mg/ul): 100%

CCCCCCCCCCCCCCCCCOS(=O)(=O)O [n-heptadecyl]
Inhibition (units/mg.) [1, 3]: 18,300 units/mg.
inhibition at 10000 µg/mL [2, 4]: 23%

CCCCCCCCCCCCCCCCOS(=O)(=O)O [n-hexadecyl]
Inhibition (units/mg.) [1, 3]: 15,200 units/mg.
inhibition at 10000 µg/mL [2, 4]: 75%

CCCCCCCC/C=C\CCCCCCCCOS(=O)(=O)O [oleyl]
Inhibition (units/mg.) ([1]; Conc. of Test Solution 1 Mg/ml): 152,000 units/mg.
inhibition at 1000 µg/mL ([2]; sodium salts): 0%

CCCCCCCCCCCCCOS(=O)(=O)O [n-tridecyl]
Inhibition (units/mg.) [1, 3]: 3,200 units/mg.
inhibition at 10000 µg/mL [2, 4]: 80%

CCCCCCCCCCCCCCCCCCCCCCCCOS(=O)(=O)O [n-tetracosyl]
Inhibition (units/mg.) ([1]; Conc. of Test Solution 1 Mg/ml): 123,000 units/mg.
inhibition at 1000 µg/mL ([2]; sodium salts): 0%

CCCCCCCCC(CCCCC)OS(=O)(=O)O (stereo not drawn) [6-tetradecyl]
Inhibition (units/mg.) ([1]; Conc. of Test Solution 1 Mg/ml): 90,000 units/mg.
inhibition at 1000 µg/mL ([2]; sodium salts): 12%

CCCCCCCCCCCCCCCCCCOS(=O)(=O)O [n-octadecyl]
Inhibition (units/mg.) [1, 3]: 26,000 units/mg.
inhibition at 10000 µg/mL [2, 4]: 30%

CCCCCCCCCCCCCCCOS(=O)(=O)O [n-pentadecyl]
Inhibition (units/mg.) [1, 3]: 14,300 units/mg.
inhibition at 10000 µg/mL [2, 4]: 60%

CC(C)CCCCCCCCCCCOS(=O)(=O)O [12-methyltridecyl]
Inhibition (units/mg.) ([1]; Conc. of Test Solution 1 Mg/ml): 172,000 units/mg.
inhibition at 1000 µg/mL ([2]; sodium salts): 7%

CCCCCCCCCCCCCCOS(=O)(=O)O [CH3 (CH2)13 Li]
Inhibition (units/mg) [1]: 58,000 units/mg
% Inhibition ([2]; other salts): 27%

CCCCCCCCCCCCOS(=O)(=O)[O-].[Na+] [n-dodecyl, Sodium lauryl sulfate]
inhibition at 10000 µg/mL [2, 4]: 71%

CCCCCCCCCCC(CCCCCCCC)COS(=O)(=O)O (stereo not drawn) [2-octyldodecyl]
Inhibition (units/mg.) ([1]; Conc. of Test Solution 1 Mg/ml): 132,000 units/mg.
inhibition at 1000 µg/mL ([2]; sodium salts): 0%

CCCCCCCCCCCCCCOS(=O)(=O)O [CH3 (CH2)13 Ca]
Inhibition (units/mg) [1]: 48,000 units/mg
% Inhibition ([2]; other salts): 38%

CCCCCCCC(CCCCCC)OS(=O)(=O)O (stereo not drawn) [7-tetradecyl]
Inhibition (units/mg.) ([1]; Conc. of Test Solution 1 Mg/ml): 112,000 units/mg.
inhibition at 1000 µg/mL ([2]; sodium salts): 0%

CC(C)CCCC(C)CCCC(C)CCOS(=O)(=O)O (stereo not drawn) [3,7,11-trimethyldodecyl]
Inhibition (units/mg.) ([1]; Conc. of Test Solution 1 Mg/ml): 29,000 units/mg.
inhibition at 1000 µg/mL ([2]; sodium salts): 39%

CCCCCCCCCCCCC(C)OS(=O)(=O)O (stereo not drawn) [2-tetradecyl]
Inhibition (units/mg.) ([1]; Conc. of Test Solution 1 Mg/ml): 87,000 units/mg.
inhibition at 1000 µg/mL ([2]; sodium salts): 100%

CCCCCCCCCC(CCCCCCCC)OS(=O)(=O)O (stereo not drawn) [9-octadecyl]
Inhibition (units/mg.) ([1]; Conc. of Test Solution 1 Mg/ml): 148,000 units/mg.
inhibition at 1000 µg/mL ([2]; sodium salts): 7%

CCCCCCCCCC(CCCCCC)OS(=O)(=O)O (stereo not drawn) [7-hexadecyl]
Inhibition (units/mg.) ([1]; Conc. of Test Solution 1 Mg/ml): 123,000 units/mg.
inhibition at 1000 µg/mL ([2]; sodium salts): 0%

CCCCCCCCCCC(CCC)OS(=O)(=O)O (stereo not drawn) [4-tetradecyl]
Inhibition (units/mg.) ([1]; Conc. of Test Solution 1 Mg/ml): 102,000 units/mg.
inhibition at 1000 µg/mL ([2]; sodium salts): 0%

CCCCCCCCCCCCCCCCCCCCCCCCCCCOS(=O)(=O)O [n-heptacosyl]
Inhibition (units/mg.) ([1]; Conc. of Test Solution 1 Mg/ml): 100,000 units/mg.
inhibition at 1000 µg/mL ([2]; sodium salts): 0%

CCCCCCCCCCCCCCOS(=O)(=O)O [CH3 (CH2)13 K]
Inhibition (units/mg) [1]: 62,000 units/mg
% Inhibition ([2]; other salts): 27%

CCCCCCCCCCCCCCCCCCCCOS(=O)(=O)O [n-eicosyl]
Inhibition (units/mg.) [1, 3]: 31,800 units/mg.
inhibition at 10000 µg/mL [2, 4]: 0%

CCCCC/C=C\C/C=C\CCCCCCCCOS(=O)(=O)O [linoleyl]
Inhibition (units/mg.) ([1]; Conc. of Test Solution 1 Mg/ml): 210,000 units/mg.
inhibition at 1000 µg/mL ([2]; sodium salts): 0%

CCCC/C=C\CCCCCCCCOS(=O)(=O)O [myristoleyl]
Inhibition (units/mg.) ([1]; Conc. of Test Solution 1 Mg/ml): 160,000 units/mg.
inhibition at 1000 µg/mL ([2]; sodium salts): 13%

CC(C)CCCC(C)CCOS(=O)(=O)O (stereo not drawn) [tetrahydrogeranyl]
Inhibition (units/mg.) ([1]; Conc. of Test Solution 1 Mg/ml): 240,000 units/mg.
inhibition at 1000 µg/mL ([2]; sodium salts): 0%

From patent US4264577A, “Contraceptive methods and compositions” (Eli Lilly and Company, priority 1980, dated 1981)
